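96-well plates; 48 h exposure; 5 concentrations. Endpoints by linear interpolation between flanking doses. Not reached: highest tested concentration assigned. TGI is the concentration that stops growth completely.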
How the values were obtained:
Experiment in all cases: NCI tumour cell line growth inhibition, 48 h
786-0 renal = test system: 786-0 renal
NCI-H226 lung = test system: NCI-H226 lung
COLO 205 colon = test system: COLO 205 colon
BT-549 breast = test system: BT-549 breast
MDA-N = test system: MDA-N
HCT-15 colon = test system: HCT-15 colon
OVCAR-4 ovarian = test system: OVCAR-4 ovarian
NCI-H522 lung = test system: NCI-H522 lung
UACC-62 melanoma = test system: UACC-62 melanoma
CCRF-CEM leukemia = test system: CCRF-CEM leukemia
OVCAR-5 ovarian = test system: OVCAR-5 ovarian
U251 CNS = test system: U251 CNS
LOX IMVI melanoma = test system: LOX IMVI melanoma
SF-539 CNS = test system: SF-539 CNS
MCF7 breast = test system: MCF7 breast
SN12C renal = test system: SN12C renal
NCI/ADR-RES ovarian = test system: NCI/ADR-RES ovarian
HL-60(TB) leukemia = test system: HL-60(TB) leukemia
DU-145 prostate = test system: DU-145 prostate
OVCAR-3 ovarian = test system: OVCAR-3 ovarian
SNB-19 CNS = test system: SNB-19 CNS
RPMI-8226 leukemia = test system: RPMI-8226 leukemia
OVCAR-8 ovarian = test system: OVCAR-8 ovarian
KM12 colon = test system: KM12 colon
SK-MEL-28 melanoma = test system: SK-MEL-28 melanoma
SNB-75 CNS = test system: SNB-75 CNS
MDA-MB-231 breast = test system: MDA-MB-231 breast
HCT-116 colon = test system: HCT-116 colon
SK-MEL-5 melanoma = test system: SK-MEL-5 melanoma
HS 578T breast = test system: HS 578T breast
EKVX NSCLC = test system: EKVX NSCLC
MOLT-4 leukemia = test system: MOLT-4 leukemia
SK-OV-3 ovarian = test system: SK-OV-3 ovarian
A549 NSCLC = test system: A549 NSCLC
IGROV1 ovarian = test system: IGROV1 ovarian
SR leukemia = test system: SR leukemia
HOP-62 NSCLC = test system: HOP-62 NSCLC
A498 renal = test system: A498 renal
HOP-92 NSCLC = test system: HOP-92 NSCLC
RXF 393 renal = test system: RXF 393 renal
K-562 leukemia = test system: K-562 leukemia
SF-268 CNS = test system: SF-268 CNS
SF-295 CNS = test system: SF-295 CNS
PC-3 prostate = test system: PC-3 prostate
HT29 colon = test system: HT29 colon
T-47D breast = test system: T-47D breast
SW-620 colon = test system: SW-620 colon
UO-31 renal = test system: UO-31 renal
M14 melanoma = test system: M14 melanoma
NCI-H23 lung = test system: NCI-H23 lung
UACC-257 melanoma = test system: UACC-257 melanoma
MALME-3M melanoma = test system: MALME-3M melanoma
ACHN renal = test system: ACHN renal
MDA-MB-435 = test system: MDA-MB-435
CAKI-1 renal = test system: CAKI-1 renal
TK-10 renal = test system: TK-10 renal
NCI-H460 lung = test system: NCI-H460 lung
SK-MEL-2 melanoma = test system: SK-MEL-2 melanoma

Cc1c(C=C(C#N)C#N)c(=O)n(C)c(=O)n1C
TGI (786-0 renal): > 100 µM
TGI (NCI-H226 lung): > 100 µM
TGI (COLO 205 colon): > 100 µM
TGI (BT-549 breast): > 100 µM
TGI (MDA-N): > 100 µM
TGI (HCT-15 colon): > 100 µM
TGI (OVCAR-4 ovarian): > 100 µM
TGI (NCI-H522 lung): > 100 µM
TGI (UACC-62 melanoma): > 100 µM
TGI (CCRF-CEM leukemia): 94.8 µM
TGI (OVCAR-5 ovarian): > 100 µM
TGI (U251 CNS): > 100 µM
TGI (LOX IMVI melanoma): > 100 µM
TGI (SF-539 CNS): > 100 µM
TGI (MCF7 breast): > 100 µM
TGI (SN12C renal): > 100 µM
TGI (NCI/ADR-RES ovarian): > 100 µM
TGI (HL-60(TB) leukemia): > 100 µM
TGI (DU-145 prostate): > 100 µM
TGI (OVCAR-3 ovarian): > 100 µM
TGI (SNB-19 CNS): > 100 µM
TGI (RPMI-8226 leukemia): > 100 µM
TGI (OVCAR-8 ovarian): > 100 µM
TGI (KM12 colon): > 100 µM
TGI (SK-MEL-28 melanoma): > 100 µM
TGI (SNB-75 CNS): > 100 µM
TGI (MDA-MB-231 breast): > 100 µM
TGI (HCT-116 colon): > 100 µM
TGI (SK-MEL-5 melanoma): > 100 µM
TGI (HS 578T breast): > 100 µM
TGI (EKVX NSCLC): > 100 µM
TGI (MOLT-4 leukemia): > 100 µM
TGI (SK-OV-3 ovarian): > 100 µM
TGI (A549 NSCLC): > 100 µM
TGI (IGROV1 ovarian): > 100 µM
TGI (SR leukemia): > 100 µM
TGI (HOP-62 NSCLC): > 100 µM
TGI (A498 renal): > 100 µM
TGI (HOP-92 NSCLC): > 100 µM
TGI (RXF 393 renal): > 100 µM
TGI (K-562 leukemia): > 100 µM
TGI (SF-268 CNS): > 100 µM
TGI (SF-295 CNS): > 100 µM
TGI (PC-3 prostate): > 100 µM
TGI (HT29 colon): > 100 µM
TGI (T-47D breast): > 100 µM
TGI (SW-620 colon): > 100 µM
TGI (UO-31 renal): > 100 µM
TGI (M14 melanoma): > 100 µM
TGI (NCI-H23 lung): > 100 µM
TGI (UACC-257 melanoma): > 100 µM
TGI (MALME-3M melanoma): > 100 µM
TGI (ACHN renal): > 100 µM
TGI (MDA-MB-435): > 100 µM
TGI (CAKI-1 renal): > 100 µM
TGI (TK-10 renal): > 100 µM
TGI (NCI-H460 lung): > 100 µM
TGI (SK-MEL-2 melanoma): > 100 µM
